Data published in patent US20080300138A1, “Dioxazinyl-Substituted Thienylsulphonylaminocarbonyl Compounds” (priority 2004, published 2008).

Tests used:
Amaranthus = test: Post-emergence test/greenhouse; format: in vivo; conditions: 80 g of ai/ha, WP sprayed at one-leaf stage, scored visually after about 3 weeks, 100% = plants have died, 0% = like control plants
Procedure: (§1) Seeds of mono- and dicotyledonous weed and crop plants are placed in sandy loam soil in wood fiber pots, covered with soil and cultivated in a greenhouse under good growth conditions. 2 to 3 weeks after sowing, the trial plants are treated at the one-leaf stage. The test compounds, formulated as wettable powders (WP), are sprayed at various dosages with a water application rate of 800 I/ha (converted) and with addition of 0.2% of welting agent onto the green parts of the plants. After the trial plants have stood in the greenhouse for about 3 weeks under optimum growth conditions, the effect of the products is scored visually in comparison to untreated controls (herbicidal effect in percent (%): 100% effect=plants have died, 0% effect=like control plants).

Cyperus = test: Post-emergence test/greenhouse; format: in vivo; conditions: 80 g of ai/ha, WP sprayed at one-leaf stage, scored visually after about 3 weeks, 100% = plants have died, 0% = like control plants
Procedure: as §1

Echinochloa = test: Post-emergence test/greenhouse; format: in vivo; conditions: 80 g of ai/ha, WP sprayed at one-leaf stage, scored visually after about 3 weeks, 100% = plants have died, 0% = like control plants
Procedure: as §1

Lolium = test: Post-emergence test/greenhouse; format: in vivo; conditions: 80 g of ai/ha, WP sprayed at one-leaf stage, scored visually after about 3 weeks, 100% = plants have died, 0% = like control plants
Procedure: as §1

Setaria = test: Post-emergence test/greenhouse; format: in vivo; conditions: 80 g of ai/ha, WP sprayed at one-leaf stage, scored visually after about 3 weeks, 100% = plants have died, 0% = like control plants
Procedure: as §1

Sinapis = test: Post-emergence test/greenhouse; format: in vivo; conditions: 80 g of ai/ha, WP sprayed at one-leaf stage, scored visually after about 3 weeks, 100% = plants have died, 0% = like control plants
Procedure: as §1

Stellaria = test: Post-emergence test/greenhouse; format: in vivo; conditions: 80 g of ai/ha, WP sprayed at one-leaf stage, scored visually after about 3 weeks, 100% = plants have died, 0% = like control plants
Procedure: as §1

weeds = test: Post-emergence test (summary in words); format: in vivo, mono- and dicotyledonous weed plants; conditions: greenhouse, result in words
Procedure: as §1

Structure (SMILES)	herbicidal effect in percent, Amaranthus (Amaranthus) [%]	herbicidal effect in percent, Cyperus (Cyperus) [%]	herbicidal effect in percent, Echinochloa (Echinochloa) [%]	herbicidal effect in percent, Lolium (Lolium) [%]	herbicidal effect in percent, Setaria (Setaria) [%]	herbicidal effect in percent, Sinapis (Sinapis) [%]	herbicidal effect in percent, Stellaria (Stellaria) [%]	effectiveness against weeds (weeds)
COc1nc(C)nc(NC(=O)NS(=O)(=O)c2c(C3=NOCCO3)csc2C)n1 [Example 1, N-(4-methoxy-6-methyl-1,3,5-triazin-2-yl)-N′-(4-(5,6-dihydro-[1,4,2]-dioxazin-3-yl)-2-methylthien-3-ylsulfonyl)urea]	90	100	90	90	90	90	90	highly effective
COc1nn(C)c(=O)n1C [Example 6]	90	80	80	90	80	80	90	highly effective
CCOc1nn(C)c(=O)n1C [Example 7]	90	90	90	90	90	80	90	highly effective
